# Measured values from patent US11766405B2 (MEDAC GESELLSCHAFT FUR KLINISCHE SPEZIALPRAPARATE MBH, priority 2013, dated 2023).
# Several values for one entry are separate records, joined by “and”; a condition that tells them apart may be missing. Identical values can stand only once.
# Columns and labels:
# Type in all cases: physicochemical
# [1] = HPLC determination of impurities / mitomycin purity, process 2 (UV 254 nm)
# Protocol: Column: YMC-Pack Phenyl 4.6 mm×300 mm, 10 μm […]
# Purity determinations according to process 2 were performed at different times. […]
# [2] = Impurities / purity, process 4 (impurities process Ph Eur 8.0 Mitomycin Monograph); conditions: for Impurity albomitomycin C / Sum of all impurities: Example 13 urea lyophilisate, process 4; for Mitomycin purity: No. 7: DMSO 100 wt.-%, 1.82 mg/g mitomycin C, 27.3 mg/g urea, room temperature, exclusion of light
# Protocol: The composition according to the invention comprises the impurities D1, D2 and albomitomycin C in a total quantity of in particular less than 2.0%, preferably less than 1.5%, particularly preferably less than 1.0%, more preferably less than 0.8% and quite particularly preferably less than 0.6%, wherein the quantity of these impurities is determined according to the impurities process according to Ph Eur 8.0 Mitomycin Monograph January 2008: 1655. In the examples, this determination process is also referred to as process 4.
# (§1) The solutions were stored at room temperature and with exclusion of light for a period of up to 71.5 hours.
# Process 3 corresponds to the content process according to Ph Eur 8.0 Mitomycin Monograph January 2008: 1655. Process 4 corresponds to the impurities process according to Ph Eur 8.0 Mitomycin Monograph January 2008: 1655.
# (§2) The reconstitution was effected with 20 and 40 ml respectively of isotonic saline solution to an end concentration of 1 mg/ml.
# [3] = Mitomycin C content, process 3 (content process Ph Eur 8.0 Mitomycin Monograph); conditions: for Mitomycin C content: process 3; for Mitomycin content: No. 6: DMSO/DMAA 5.7/94.3 wt.-%, 0.53 mg/g mitomycin C, 8.0 mg/g urea, room temperature, exclusion of light
# Protocol: as §1
# Process 3 corresponds to the content process according to Ph Eur 8.0 Mitomycin Monograph January 2008: 1655. Process 4 corresponds to the impurities process according to Ph Eur 8.0 Mitomycin Monograph January 2008: 1655. […]
# [4] = Reconstitution time of lyophilisates; conditions: Example 13 urea lyophilisate
# Protocol: Moreover, the lyophilisates could be completely reconstituted with isotonic saline solution in very much less than 30 secs.
# In addition, the reconstitution time was determined.
# as §2
# [5] = 20 mg mitomycin C, 40° C. and 75% r.h., t = 3 months
# [6] = 20 mg mitomycin C, 40° C. and 75% r.h., t = 6 months
# [7] = 40 mg mitomycin C, 40° C. and 75% r.h., t = 3 months
# [8] = 40 mg mitomycin C, 40° C. and 75% r.h., t = 6 months
structure (smiles),measurement,setting,value
"CO[C@@]12[C@H](COC(N)=O)C3=C(C(=O)C(C)=C(N)C3=O)N1C[C@@H]1N[C@@H]12 [Mitomycin C, (1aS,8S,8aR,8bS)-6-amino-8-[[(aminocarbonyl)oxy]methyl]-1,1a,2,8,8a,8b-hexahydro-8a-methoxy-5-methyl-azirino[2′,3′:3,4]pyrrolo[1,2-a]indol-4,7-dione]",Mitomycin purity,[1],98.86% and 96.77% and 97.04%
same,Mitomycin purity,"[1]; Example 5 solution: 3.33 mg/g mitomycin C, 5 wt.-% urea, 89/11 wt.-% tert.-butanol/water, 5° C. with exclusion of light, t = 0",99.23%
same,Mitomycin purity,"[1]; Example 5 solution: 3.33 mg/g mitomycin C, 5 wt.-% urea, 89/11 wt.-% tert.-butanol/water, 5° C. with exclusion of light, t = 6 h",99.18%
same,Mitomycin purity,"[1]; Example 5 solution: 3.33 mg/g mitomycin C, 5 wt.-% urea, 89/11 wt.-% tert.-butanol/water, 5° C. with exclusion of light, t = 24 h",99.20%
same,Mitomycin purity,"[1]; Example 5 solution: 3.33 mg/g mitomycin C, 5 wt.-% urea, 89/11 wt.-% tert.-butanol/water, 5° C. with exclusion of light, t = 72 h",98.80%
same,Mitomycin purity,"[1]; Example 5 solution: 3.33 mg/g mitomycin C, 5 wt.-% urea, 89/11 wt.-% tert.-butanol/water, 5° C. with exclusion of light, t = 9 d",98.21%
same,Mitomycin purity,"[1]; Example 5 solution: 3.33 mg/g mitomycin C, 5 wt.-% urea, 89/11 wt.-% tert.-butanol/water, RT with exclusion of light, t = 0",99.33%
same,Mitomycin purity,"[1]; Example 5 solution: 3.33 mg/g mitomycin C, 5 wt.-% urea, 89/11 wt.-% tert.-butanol/water, RT with exclusion of light, t = 6 h",98.83%
same,Mitomycin purity,"[1]; Example 5 solution: 3.33 mg/g mitomycin C, 5 wt.-% urea, 89/11 wt.-% tert.-butanol/water, RT with exclusion of light, t = 24 h",97.80%
same,Mitomycin purity,"[1]; Example 5 solution: 3.33 mg/g mitomycin C, 5 wt.-% urea, 89/11 wt.-% tert.-butanol/water, RT with exclusion of light, t = 72 h",96.74%
same,Mitomycin purity,"[1]; Example 5 solution: 3.33 mg/g mitomycin C, 5 wt.-% urea, 89/11 wt.-% tert.-butanol/water, RT with exclusion of light, t = 9 d",96.35%
same,Mitomycin purity,"[1]; Example 5 solution: 3.33 mg/g mitomycin C, 5 wt.-% urea, 89/11 wt.-% tert.-butanol/water, RT without protection against light, t = 0",99.32%
same,Mitomycin purity,"[1]; Example 5 solution: 3.33 mg/g mitomycin C, 5 wt.-% urea, 89/11 wt.-% tert.-butanol/water, RT without protection against light, t = 6 h",98.83%
same,Mitomycin purity,"[1]; Example 5 solution: 3.33 mg/g mitomycin C, 5 wt.-% urea, 89/11 wt.-% tert.-butanol/water, RT without protection against light, t = 24 h",97.60%
same,Mitomycin purity,"[1]; Example 5 solution: 3.33 mg/g mitomycin C, 5 wt.-% urea, 89/11 wt.-% tert.-butanol/water, RT without protection against light, t = 72 h",96.14%
same,Mitomycin purity,"[1]; Example 5 solution: 3.33 mg/g mitomycin C, 5 wt.-% urea, 89/11 wt.-% tert.-butanol/water, RT without protection against light, t = 9 d",95.78%
same,Mitomycin C purity,"[1]; Example 7 solution: 1.33 mg/g mitomycin C, 20 mg/g urea, 89/11 wt.-% tert.-butanol/water, 5° C. with exclusion of light, t = 27 h",99.7%
same,Mitomycin C purity,"[1]; Example 7 solution: 1.33 mg/g mitomycin C, 20 mg/g urea, 89/11 wt.-% tert.-butanol/water, RT with exclusion of light, t = 5 h",99.7%
same,Mitomycin C purity,"[1]; Example 7 solution: 1.33 mg/g mitomycin C, 20 mg/g urea, 89/11 wt.-% tert.-butanol/water, RT with exclusion of light, t = 22 h",99.2%
same,Mitomycin C purity,"[1]; Example 7 solution: 1.33 mg/g mitomycin C, 20 mg/g urea, 89/11 wt.-% tert.-butanol/water, RT with exclusion of light, t = 27 h",98.9%
same,Mitomycin C purity,"[1]; Example 8 solution: 1.67 mg/g mitomycin C, 25 mg/g urea, 89/11 wt.-% tert.-butanol/water, RT with exclusion of light, t = 5 h",99.6%
same,Mitomycin C purity,"[1]; Example 8 solution: 1.67 mg/g mitomycin C, 25 mg/g urea, 89/11 wt.-% tert.-butanol/water, RT with exclusion of light, t = 22 h",99.1%
same,Mitomycin C purity,"[1]; Example 8 solution: 1.67 mg/g mitomycin C, 25 mg/g urea, 89/11 wt.-% tert.-butanol/water, RT with exclusion of light, t = 27 h",98.6%
same,Impurity albomitomycin C,[2]; [5],0.20%
same,Sum of all impurities,[2]; [5],0.55%
same,Impurity albomitomycin C,[2]; [6],0.26%
same,Sum of all impurities,[2]; [6],0.61%
same,Impurity albomitomycin C,"[2]; 20 mg mitomycin C, t = 0",0.29%
same,Sum of all impurities,"[2]; 20 mg mitomycin C, t = 0",0.29%
same,Impurity albomitomycin C,[2]; [7],0.22%
same,Sum of all impurities,[2]; [7],0.55
same,Impurity albomitomycin C,[2]; [8],0.21%
same,Sum of all impurities,[2]; [8],0.58
same,Impurity albomitomycin C,"[2]; 40 mg mitomycin C, t = 0",0.32%
same,Sum of all impurities,"[2]; 40 mg mitomycin C, t = 0",0.32
same,Mitomycin purity,[2]; t = 0,100%
same,Mitomycin purity,[2]; t = 4 h,99.31%
same,Mitomycin purity,[2]; t = 6.5 h,99.32%
same,Mitomycin purity,[2]; t = 13 h,99.19%
same,Mitomycin purity,[2]; t = 20 h,99.36%
same,Mitomycin purity,[2]; t = 26.5 h,99.32%
same,Mitomycin C content,"[3]; Example 13 urea lyophilisate, 20 mg mitomycin C, 40° C. and 75% r.h., t = 3 months",98.2%
same,Mitomycin C content,"[3]; Example 13 urea lyophilisate, 20 mg mitomycin C, 40° C. and 75% r.h., t = 6 months",98.3%
same,Mitomycin C content,"[3]; Example 13 urea lyophilisate, 20 mg mitomycin C, t = 0",97.8%
same,Mitomycin C content,"[3]; Example 13 urea lyophilisate, 40 mg mitomycin C, 40° C. and 75% r.h., t = 3 months",96.6%
same,Mitomycin C content,"[3]; Example 13 urea lyophilisate, 40 mg mitomycin C, 40° C. and 75% r.h., t = 6 months",96.7%
same,Mitomycin C content,"[3]; Example 13 urea lyophilisate, 40 mg mitomycin C, t = 0",97.2%
same,Mitomycin C content,"[3]; Example 14 urea lyophilisate (20 mg) reconstituted with water for injection, end concentration 1 mg/ml",100.6%
same,Mitomycin C content,"[3]; Example 14 urea lyophilisate (20 mg) reconstituted with water for injection, end concentration 2 mg/ml",100.6%
same,Mitomycin content,[3]; t = 0,100%
same,Mitomycin content,[3]; t = 6.5 h,99.93%
same,Mitomycin content,[3]; t = 14.5 h,99.62%
same,Mitomycin content,[3]; t = 21 h,98.84%
same,Mitomycin content,[3]; t = 42 h,99.11%
same,Mitomycin content,[3]; t = 71.5 h,98.58%
same,Reconstitution time,"[4]; 20 mg mitomycin C, 20 ml isotonic saline to 1 mg/ml, 40° C. and 75% r.h., t = 3 months",12 s
same,Reconstitution time,"[4]; 20 mg mitomycin C, 20 ml isotonic saline to 1 mg/ml, 40° C. and 75% r.h., t = 6 months",17 s
same,Reconstitution time,"[4]; 20 mg mitomycin C, 20 ml isotonic saline to 1 mg/ml, t = 0",7 s
same,Reconstitution time,"[4]; 40 mg mitomycin C, 40 ml isotonic saline to 1 mg/ml, 40° C. and 75% r.h., t = 3 months",20 s
same,Reconstitution time,"[4]; 40 mg mitomycin C, 40 ml isotonic saline to 1 mg/ml, 40° C. and 75% r.h., t = 6 months",18 s
same,Reconstitution time,"[4]; 40 mg mitomycin C, 40 ml isotonic saline to 1 mg/ml, t = 0",6 s
